Measured values reported in the METLIN SMRT retention time set (Domingo-Almenara et al. 2019).

Experiment: gradient 5% acetonitrile 3 min, to 50% in 2 min, to 85% in 15 min, held 3 min, 100 µL/min
Conditions: column: Zorbax Extend-C18 2.1 x 50 mm; eluents: water / acetonitrile, 0.1% formic acid
Summary of the method: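 Mixtures of ~100 pure standards were chromatographed on a Zorbax Extend-C18 column (2.1 × 50 mm, 1.8 μm) at 100 μL/min using water and acetonitrile, each with 0.1% formic acid. Detection used a quadrupole time-of-flight mass spectrometer in positive and negative ionization mode, and data collection spanned 3 months. Retention time was obtained from adduct peaks picked computationally and each checked manually.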

Compound	RP-LC retention time [s]
CC(C)C(=O)Nc1ccc(-n2cnc(C(=O)NCc3cc(F)cc(F)c3)c2)nc1	785
CCc1ccc(-c2noc(Cn3c(=O)n(-c4ccc(F)cc4)c(=O)c4sccc43)n2)cc1	1090
CC(=O)NCCc1c(Cc2ccccc2)[nH]c2ccccc12	876
COc1ccc(NC(=O)N2CCCC(C)(C(=O)NCc3ccc(C)cc3)C2)cc1 (stereo not given)	874
COc1cc(-c2ccc(SCC(=O)c3ccc(C)cc3)nn2)cc(OC)c1OC	949
COc1ccc(S(=O)(=O)N2[C@H]3CC[C@@H]2c2cnc(C)nc2C3)cc1	693
O=C(CCC1CCCN(S(=O)(=O)c2ccccc2F)C1)NCCc1ccccc1 (stereo not given)	952
Cc1nn(C)c2nc(OCC(=O)Nc3ccccc3Cl)cc(C(F)(F)F)c12	1130
CN(Cc1cc(C(F)(F)F)ccc1Cl)C1CCc2nn(C)c(=O)n2CC1 (stereo not given)	610
Cc1ccccc1NC(=O)N1CCC(CC(=O)N2CCCCC2)CC1	732
O=C(C1CC(=O)N(C2CCCC2)C1)N1CCC(c2c[nH]c3ccccc23)(c2c[nH]c3ccccc23)CC1 (stereo not given)	850
CCn1cnc(S(=O)(=O)N2CCC(C(=O)NC3CCCCC3)CC2)c1	686
CC(C)NC(=O)CC1CCN(C(=O)c2cc3cc(Cl)ccc3[nH]2)CC1	773
Cc1cc(C)n(-c2ccnc(NCc3ccc(Br)cc3)n2)n1	946
COc1ccc(NC(=O)CN2C(=O)C(C)(C)c3ccccc32)c(OC)c1	869
CN(C)c1ncncc1N1CCC(C(=O)NCC2CCCO2)CC1 (stereo not given)	566
CC12CCC(C(=O)NCc3ccccc3)(OC1=O)C2(C)C (stereo not given)	768
O=C(CN1CCN(C(=O)COc2ccc(Cl)cc2Cl)CC1)c1cccs1	630
CCc1nnc(-c2ccc(S(=O)(=O)N3CCCC(C)C3)o2)o1 (stereo not given)	906
COCCOC1CN(C2CCN(Cc3ccccc3C#N)CC2)C12CCCCC2 (stereo not given)	572
O=C([C@@H]1C[C@H](F)CN1C(=O)c1cccc(Br)c1)N1CCCCC1	742
CCOc1cc(CNC(=O)C2CCCN(c3nc4ccccc4n(CC)c3=O)C2)ccc1OC (stereo not given)	936
COc1ccc(-c2ncc3c(n2)CCN(C(=O)c2ccc(C(F)(F)F)cc2)C3)cc1	1010
Cc1oc(-c2ccc(NC(=O)c3ccco3)cc2)nc1Cn1cccn1	759
CCc1ccc(S(=O)(=O)Nc2ccc(-c3cn4ccc(C)nc4n3)cc2)cc1	696
O=C1CC(c2ccccc2)N(S(=O)(=O)c2cccc3nsnc23)CCCCCN1 (stereo not given)	848
O=C1NCCCn2cc(S(=O)(=O)N3CCN(Cc4ccccc4)CC3)cc21	758
COc1ccc(C2CC(=O)c3c(C)nc(N4CCN(CCO)CC4)nc3C2)cc1 (stereo not given)	638

Other lines, results leading:

RP-LC retention time [s]	Compound
1240	O=C(Nc1cccc([N+](=O)[O-])c1)c1ccc2ccccc2c1O
681	O=C(NCC(c1cccnc1)N1CCc2ccccc2C1)C(=O)NC1CCCCCC1 (stereo not given)
877	O=C(C1CCCC1)N1CCN(c2cc(-c3ccc(Cl)cc3)[nH]n2)CC1
738	Cc1ccc(-c2nc3nc(C)c(CC(=O)N4CCCC4)c(C)n3n2)cc1
951	Fc1cccc(-c2noc(-c3nc(-c4ccncc4)no3)n2)c1
841	Cc1nc(Nc2ccccn2)sc1C(=O)N1CCN(c2ccccc2F)CC1
1140	CCc1ccc(-c2nc(-c3ccc4nnc(CC)n4c3)no2)cc1
939	CC1=C(c2ccc(C(C)C)cc2)S(=O)(=O)N=C1N1CCC(C(=O)NCc2ccco2)CC1
804	Cc1noc(-c2ccc(=O)n(Cc3nc(-c4ccccc4)oc3C)c2)n1
910	CC1CCN(C(=O)CN2C(=O)C3CCCCN3c3ccc(S(=O)(=O)N(C)C)cc32)CC1 (stereo not given)
614	O=C(c1cc(-c2ccncc2)n[nH]1)N1CCC(C(=O)N2CCc3ccccc3C2)CC1
783	Cc1ccc(CNC(=O)C2(C)Cn3nc(C(=O)NCc4ccc(F)cc4)cc3C(=O)N2C)cc1 (stereo not given)
979	COc1ccc(-c2csc(NC(=O)CSc3nc(C)cc(C)n3)n2)cc1
685	CCNC(=O)C1CCCN(c2nc3ncn(CC(=O)Nc4cc(F)ccc4F)c(=O)c3s2)C1 (stereo not given)
839	COc1ccc(-c2ncc(C(=O)Nc3ccc(OC)cc3OC)c(-c3ccncc3)n2)cc1
660	COc1cc([C@@H]2c3cc4c(cc3[C@H](O)[C@@H](CO)[C@@H]2C(=O)NC(C)C)OCO4)cc(OC)c1OC
744	CC1CCN(c2cncnc2-n2cc(NC(=O)NC3CCCCC3)cn2)CC1
1130	CCCN1C(=O)COc2ccc(-c3noc(-c4ccc(CS(=O)(=O)c5ccccc5)cc4)n3)cc21
813	Cc1ccc(NC(=O)N2CCC(CC(=O)N3CCCCC3)CC2)cc1F

RP-LC retention time [s]	Compound
557	O=C(CCc1c(-c2ccc(Br)cc2)nc2ccccn12)NCc1cccnc1
639	O=C(Nc1cccc(F)c1)C1(CCO)CCN(c2ncccn2)C1 (stereo not given)
705	Cc1ccc(CNC(=O)C2CCN(c3cnc4nccnc4c3)CC2)cc1
1300	CSc1ccc(Cl)c(-c2nc(-c3cccc(-c4ccnn4C)c3)no2)c1
609	Cc1ncc([N+](=O)[O-])n1CC(C)O (stereo not given)
762	O=C1NCCCCCCN(C(=O)c2ccoc2)[C@H]2C[C@H](C(=O)N3CCc4ccccc4C3)C[C@@H]12
1230	O=C(CN1CCCCC1c1nc(-c2cccc(F)c2)no1)Nc1ccccc1F (stereo not given)
700	COc1ccccc1CNC(=O)C1CCN(c2nnc3c(Cl)cccn23)CC1
705	Cc1c(Cl)cccc1Nc1c(-c2ccc(O)cc2)nc2ncccn12
632	CC(C)Cn1nc(CNC(=O)CSc2ccncc2)c2ccccc21
818	COC(=O)c1cc(S(=O)(=O)N2CCCC2C(=O)Nc2ccc(OC)cc2)cn1C (stereo not given)
697	CCN1CCN(c2nc(F)c(F)c(S(=O)(=O)CCNc3cccc4ccccc34)c2F)CC1
1040	C[C@H]1CN(C(=O)c2cc(F)cc(F)c2)C[C@@H]1c1nc(-c2ccccc2)no1
597	COc1cccc(OC)c1CN1CCC2(CC1)CC(O)CCO2 (stereo not given)
766	CCc1noc(NC(C)=O)c1-c1ccc(C)c(S(=O)(=O)NCc2ccco2)c1
621	O=C1CCCc2cc(S(=O)(=O)NCCN3CCN(c4ccccc4F)CC3)ccc2N1
997	CCOC(=O)C(C)(C)Sc1nnc(N2CCN(c3ccccc3)CC2)s1
612	Cc1cc(N2CCN(C)CC2)nc2ccc(NC(=S)NCc3ccc(F)cc3Cl)cc12
